# Legend:
# Format in all cases: cell-based
# [1] = system: BT474 breast cancer cells; test: BT474 Four (4) Day Cell Viability Assay; conditions: BT474, 4 days, 32661 0 μM
# Procedure: BT474 breast cancer cells that are Estrogen Receptor Positive and HER2+ were grown in 5% cFBS. 5,000 cells were seeded into each well of a 96-well plate and treated with escalating doses of lapatinib, fulvestrant, and 32661.
# [2] = system: estrogen receptor response gene (SDF) in MCF7 breast cancer cells; test: Inhibition of Estrogen Receptor Target Gene Transcription (SDF qPCR); conditions: MCF7, 10 nM estradiol, 4 hours; 1 uM fulvestrant; 5 or 10 uM 0032661
# Procedure: After 4 hours, RNA was harvested and converted into cDNA. qPCR analysis for SDF was performed on all samples and normalized to expression of GAPDH. The data, shown in FIG. 7, is expressed as fold change relative to SDF expression of the cFBS sample.
# [3] = system: estrogen receptor response genes Cyclin D1 and pS2 in MCF7 breast cancer cells; test: Inhibition of Estrogen Receptor Target Gene Protein Expression (immunoblot); conditions: MCF7, 10 nM E2, 18 hours; 1 uM fulvestrant; 5 or 10 uM 0032661
# Procedure: After 18 hours, protein was harvested. SDS-PAGE followed by immunoblotting of samples was performed using standard techniques. Protein lysates were immunoblotted for Estrogen Receptor (ER), Cyclin D1, pS2, and Actin.
# [4] = system: PSA in LNCaP prostate cancer cells; test: Inhibition of Increased Protein Levels of PSA (immunoblot); conditions: 10 nM DHT, 18 hours, 5 uM enzalutamide, 10, 15 or 20 uM 0032661
# Procedure: After 18 hours protein was harvested. SDS-PAGE followed by immunoblotting of samples was performed using standard techniques. Protein lysates were immunoblotted for the Androgen Receptor (AR), PSA, and Actin.
structure (smiles),measurement,setting,value
"C[C@]12CC[C@@H]3c4ccc(O)cc4C[C@@H](CCCCCCCCC[S+]([O-])CCCC(F)(F)C(F)(F)F)[C@H]3[C@@H]1CC[C@@H]2O (some centres unmarked) [Fulvestrant, fulvestrant, reference compound]",cellular viability,"[1]; fulvestrant 6.9 nM, lapatinib 0.0 nM",94%
same,cellular viability,"[1]; fulvestrant 6.9 nM, lapatinib 6.9 nM",96%
same,cellular viability,"[1]; fulvestrant 6.9 nM, lapatinib 20.6 nM",96%
same,cellular viability,"[1]; fulvestrant 6.9 nM, lapatinib 61.7 nM",87%
same,cellular viability,"[1]; fulvestrant 6.9 nM, lapatinib 185.2 nM",85%
same,cellular viability,"[1]; fulvestrant 6.9 nM, lapatinib 555.6 nM",79%
same,cellular viability,"[1]; fulvestrant 6.9 nM, lapatinib 1666.7 nM",69%
same,cellular viability,"[1]; fulvestrant 6.9 nM, lapatinib 3333.0 nM",51%
same,cellular viability,"[1]; fulvestrant 20.6 nM, lapatinib 0.0 nM",94%
same,cellular viability,"[1]; fulvestrant 20.6 nM, lapatinib 6.9 nM",88%
same,cellular viability,"[1]; fulvestrant 20.6 nM, lapatinib 20.6 nM",88%
same,cellular viability,"[1]; fulvestrant 20.6 nM, lapatinib 61.7 nM",83%
same,cellular viability,"[1]; fulvestrant 20.6 nM, lapatinib 185.2 nM",82%
same,cellular viability,"[1]; fulvestrant 20.6 nM, lapatinib 555.6 nM",78%
same,cellular viability,"[1]; fulvestrant 20.6 nM, lapatinib 1666.7 nM",63%
same,cellular viability,"[1]; fulvestrant 20.6 nM, lapatinib 3333.0 nM",47%
same,cellular viability,"[1]; fulvestrant 61.7 nM, lapatinib 0.0 nM",91%
same,cellular viability,"[1]; fulvestrant 61.7 nM, lapatinib 6.9 nM",89%
same,cellular viability,"[1]; fulvestrant 61.7 nM, lapatinib 20.6 nM",89%
same,cellular viability,"[1]; fulvestrant 61.7 nM, lapatinib 61.7 nM",90%
same,cellular viability,"[1]; fulvestrant 61.7 nM, lapatinib 185.2 nM",88%
same,cellular viability,"[1]; fulvestrant 61.7 nM, lapatinib 555.6 nM",77%
same,cellular viability,"[1]; fulvestrant 61.7 nM, lapatinib 1666.7 nM",66%
same,cellular viability,"[1]; fulvestrant 61.7 nM, lapatinib 3333.0 nM",34%
same,cellular viability,"[1]; fulvestrant 185.2 nM, lapatinib 0.0 nM",94%
same,cellular viability,"[1]; fulvestrant 185.2 nM, lapatinib 6.9 nM",91%
same,cellular viability,"[1]; fulvestrant 185.2 nM, lapatinib 20.6 nM",91%
same,cellular viability,"[1]; fulvestrant 185.2 nM, lapatinib 61.7 nM",91%
same,cellular viability,"[1]; fulvestrant 185.2 nM, lapatinib 185.2 nM",88%
same,cellular viability,"[1]; fulvestrant 185.2 nM, lapatinib 555.6 nM",74%
same,cellular viability,"[1]; fulvestrant 185.2 nM, lapatinib 1666.7 nM",63%
same,cellular viability,"[1]; fulvestrant 185.2 nM, lapatinib 3333.0 nM",36%
same,cellular viability,"[1]; fulvestrant 555.6 nM, lapatinib 0.0 nM",87%
same,cellular viability,"[1]; fulvestrant 555.6 nM, lapatinib 6.9 nM",90%
same,cellular viability,"[1]; fulvestrant 555.6 nM, lapatinib 20.6 nM",90%
same,cellular viability,"[1]; fulvestrant 555.6 nM, lapatinib 61.7 nM",88%
same,cellular viability,"[1]; fulvestrant 555.6 nM, lapatinib 185.2 nM",82%
same,cellular viability,"[1]; fulvestrant 555.6 nM, lapatinib 555.6 nM",74%
same,cellular viability,"[1]; fulvestrant 555.6 nM, lapatinib 1666.7 nM",58%
same,cellular viability,"[1]; fulvestrant 555.6 nM, lapatinib 3333.0 nM",26%
same,cellular viability,"[1]; fulvestrant 1666.7 nM, lapatinib 0.0 nM",80%
same,cellular viability,"[1]; fulvestrant 1666.7 nM, lapatinib 6.9 nM",79%
same,cellular viability,"[1]; fulvestrant 1666.7 nM, lapatinib 20.6 nM",76%
same,cellular viability,"[1]; fulvestrant 1666.7 nM, lapatinib 61.7 nM",75%
same,cellular viability,"[1]; fulvestrant 1666.7 nM, lapatinib 185.2 nM",68%
same,cellular viability,"[1]; fulvestrant 1666.7 nM, lapatinib 555.6 nM",65%
same,cellular viability,"[1]; fulvestrant 1666.7 nM, lapatinib 1666.7 nM",47%
same,cellular viability,"[1]; fulvestrant 1666.7 nM, lapatinib 3333.0 nM",15%
same,cellular viability,"[1]; fulvestrant 3333.0 nM, lapatinib 0.0 nM",60%
same,cellular viability,"[1]; fulvestrant 3333.0 nM, lapatinib 6.9 nM",53%
same,cellular viability,"[1]; fulvestrant 3333.0 nM, lapatinib 20.6 nM",53%
same,cellular viability,"[1]; fulvestrant 3333.0 nM, lapatinib 61.7 nM",26%
same,cellular viability,"[1]; fulvestrant 3333.0 nM, lapatinib 185.2 nM",24%
same,cellular viability,"[1]; fulvestrant 3333.0 nM, lapatinib 555.6 nM",32%
same,cellular viability,"[1]; fulvestrant 3333.0 nM, lapatinib 1666.7 nM",20%
same,cellular viability,"[1]; fulvestrant 3333.0 nM, lapatinib 3333.0 nM",4%
same,estrogen receptor target gene transcription (SDF),[2],inhibit the estrogen receptor target gene transcription
same,"protein levels of estrogen receptor target genes (Cyclin D1, pS2)",[3],inhibit the increase in protein levels of estrogen receptor target genes
"CNC(=O)c1ccc(N2C(=S)N(c3ccc(C#N)c(C(F)(F)F)c3)C(=O)C2(C)C)cc1F [enzalutamide, reference compound]",increase in protein levels of PSA,[4],inhibit the increase in protein levels of PSA

# Reference: US10472352B2, “Rac inhibitors” (Geneyus LLC, priority 2017, dated 2019)
